Experiments:
[1] = biological target: human serum albumin (HSA) (Homo sapiens, UniProt P02768); assay: ultrafast affinity extraction, two-dimensional HSA microcolumns, UV […] nm; type: binding
[2] = biological target: T1, sex hormone binding globulin (SHBG) (Homo sapiens, UniProt P04278)
T1 sequence (P04278 30-402): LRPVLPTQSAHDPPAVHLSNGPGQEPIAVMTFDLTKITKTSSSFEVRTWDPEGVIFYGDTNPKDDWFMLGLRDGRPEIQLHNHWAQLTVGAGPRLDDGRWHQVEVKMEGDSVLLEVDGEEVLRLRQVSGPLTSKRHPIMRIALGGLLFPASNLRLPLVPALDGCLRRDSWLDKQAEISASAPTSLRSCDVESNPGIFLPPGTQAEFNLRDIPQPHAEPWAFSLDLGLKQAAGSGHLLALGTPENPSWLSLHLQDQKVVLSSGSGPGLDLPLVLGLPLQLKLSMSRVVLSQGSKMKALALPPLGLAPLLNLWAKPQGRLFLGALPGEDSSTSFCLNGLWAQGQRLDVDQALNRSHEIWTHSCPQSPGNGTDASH

Chain of human serum albumin (HSA) (P02768 25-609): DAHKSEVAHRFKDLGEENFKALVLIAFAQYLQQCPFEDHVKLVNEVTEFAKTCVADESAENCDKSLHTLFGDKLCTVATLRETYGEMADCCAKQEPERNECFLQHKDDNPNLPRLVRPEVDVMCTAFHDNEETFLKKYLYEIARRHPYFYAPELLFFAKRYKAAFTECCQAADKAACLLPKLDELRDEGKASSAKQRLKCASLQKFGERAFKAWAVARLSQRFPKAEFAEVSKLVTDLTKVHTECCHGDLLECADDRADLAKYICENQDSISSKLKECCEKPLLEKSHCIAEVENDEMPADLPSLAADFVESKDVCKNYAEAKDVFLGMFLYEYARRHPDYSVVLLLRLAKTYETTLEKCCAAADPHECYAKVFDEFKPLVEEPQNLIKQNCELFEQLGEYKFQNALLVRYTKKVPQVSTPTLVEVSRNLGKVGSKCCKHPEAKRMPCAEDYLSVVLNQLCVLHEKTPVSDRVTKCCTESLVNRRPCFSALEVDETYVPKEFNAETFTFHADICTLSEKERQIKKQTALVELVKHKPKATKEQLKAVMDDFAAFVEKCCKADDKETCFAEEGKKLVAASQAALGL

C[C@]12CC[C@H]3[C@@H](CCC4=CC(=O)CC[C@@]43C)[C@@H]1CC[C@@H]2O [testosterone]
Kd [1]: 31.2 µM
Kd [2]: 0.000909 µM

— PMC4986690 (Analytical chemistry, 2015)
